Assay [1] deals with leukotriene pathway in human whole blood (LTB4 levels). The assay is described as follows: Human whole blood assay (LTB4). The following applies: human whole blood diluted 1:1 in RPMI, stimulated with calcium ionophore A23187; single replicate. Format: cell-based. The method, then:
(§1) The ability of the compounds of the present invention to treat a FLAP-mediated disease and/or disorder, or associated symptoms or complications thereof, was determined using the following procedures. Binding assay data represent the average value obtained from two different assay plates, with samples run in duplicate on each plate. Human whole blood assay data represent a single replicate on an assay plate using whole blood from at least one healthy donor.
An in vitro cellular assay was performed using human whole blood collected in heparin-containing tubes, which was used to test the ability of compounds to modulate the leukotriene pathway in human whole blood. The blood was diluted 1:1 in RPMI medium, pre-incubated for 15 min at 37° Celsius with test compounds at various concentrations, and then stimulated with calcium ionophore, A23187 (7 μg/mL), for 30 min at 37° Celsius. The samples were then centrifuged and plasma was removed. The plasma was diluted in assay buffer and LTB4 levels were measured using a commercial kit (Enzo Life Sciences). The concentration of each compound that was required for half-maximal inhibition (modulation) of recombinant enzyme activity (IC50) was calculated by a 4-parameter equation using the program GraphPad Prism (GraphPad software).

The target in another assay is human FLAP (Homo sapiens (Human), UniProt P20292). Nature of the assay: FLAP binding assay (HTRF). The following applies: human FLAP-containing membranes, HTRF format; average of two assay plates, duplicates; read-out: FLAP Binding wild type HTRF Ki. The method, then: as §1
Sequence of human FLAP (P20292 whole entry): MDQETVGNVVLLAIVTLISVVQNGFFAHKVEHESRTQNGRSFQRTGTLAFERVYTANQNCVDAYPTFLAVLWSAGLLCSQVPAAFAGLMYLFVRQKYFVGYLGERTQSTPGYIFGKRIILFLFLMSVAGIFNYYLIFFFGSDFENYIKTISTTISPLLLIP
Data are expressed as a HTRF ratio.

The IC50 is the point on the concentration scale where inhibition reaches its midpoint. A word on the Ki: it is a dissociation constant, usually derived from enzyme kinetics or from competition with a known ligand.

For “2-[3-(Benzyloxy)-4-cyclobutyl-2- fluorophenyl]-5H-pyrrolo[2,3-b]pyrazine [Example 177]”, the IC50 in assay [1] worked out at 771 nM.

In the case of “6-cyclobutyl-2-fluoro-3-(5H-pyrrolo[2,3-b]pyrazin-2-yl)phenol [Example 176]”, the Ki at human FLAP stood at 100 nM. Further, in assay [1], the IC50 came out at 892 nM.

On to `Nc1cnc(-c2ccc(C3CCC3)c(OCC(O)Cn3cnccc3=O)c2F)cn1` (racemic) [Example 52, racemic 3-(3-(3-(5-Aminopyrazin-2-yl)-6-cyclobutyl-2-fluorophenoxy)-2-hydroxypropyl)pyrimidin-4(3H)-one], for which the Ki on human FLAP stood at 366 nM. The IC50 in assay [1] came out at 680 nM.

Turning to `Nc1cnc(-c2ccc(C3CCC3)c(OCC(O)CNc3ncccn3)c2F)cn1` (racemic) [Example 56, racemic 1-(3-(5-Aminopyrazin-2-yl)-6-cyclobutyl-2-fluorophenoxy)-3-(pyrimidin-2-ylamino)propan-2-ol], in assay [1], the IC50 turned out to be 644 nM.

In the case of `Nc1cnc(-c2ccc(C3CCC3)c(OCC(O)Cn3cccn3)c2F)cn1` (racemic) [Example 60, racemic 1-(3-(5-Aminopyrazin-2-yl)-6-cyclobutyl-2-fluorophenoxy)-3-(1H-pyrazol-1-yl)propan-2-ol], the IC50 in assay [1] stood at 732 nM.

Turning to `N#Cc1cnn(CC(O)COc2c(C3CCC3)ccc(-c3cnc(N)cn3)c2F)c1N` (racemic) [Example 65, racemic 5-Amino-1-(3-(3-(5-aminopyrazin-2-yl)-6-cyclobutyl-2-fluorophenoxy)-2-hydroxypropyl)-1H-pyrazole-4-carbonitrile], the IC50 in assay [1] came to 107 nM.

On to `Nc1cnc(-c2ccc(C3CCC3)c(OCC(O)CNc3ccn[nH]3)c2F)cn1` (racemic) [Example 67, racemic 1-((1H-Pyrazol-5-yl)amino)-3-(3-(5-aminopyrazin-2-yl)-6-cyclobutyl-2-fluorophenoxy)propan-2-ol], for which the IC50 in assay [1] came to 727 nM.

`CS(=O)(=O)c1cccc(COc2c(C3CCC3)ccc(-c3cnc(N)cn3)c2F)c1` [Example 6, 5-(4-Cyclobutyl-2-fluoro-3-{[3-(methylsulfonyl)benzyl]oxy}phenyl)-pyrazin-2-amine]: the IC50 in assay [1] was determined as 1220 nM.

With `Nc1cnc(-c2ccc(C3CCC3)c(OCc3ccc(F)c(F)c3)c2F)cn1` [Example 33, 5-{4-Cyclobutyl-3-[(3,4-difluorobenzyl)oxy]-2-fluorophenyl}pyrazin-2-amine], the half-inhibitory concentration (IC50) in assay [1] was found to be 1410 nM.

With `Nc1cnc(-c2ccc(C3CCC3)c(OCc3cc(Cl)ccc3Cl)c2F)cn1` [Example 38, 5-{4-Cyclobutyl-3-[(2,5-dichlorobenzyl)oxy]-2-fluorophenyl}pyrazin-2-amine], the IC50 in assay [1] came to 736 nM.

On to `Nc1cnc(-c2ccc(C3CCC3)c(OCc3nc(C4CC4)no3)c2F)cn1` [Example 48, 5-{4-Cyclobutyl-3-[(3-cyclopropyl-1,2,4-oxadiazol-5-yl)methoxy]-2-fluorophenyl}pyrazin-2-amine], for which the IC50 in assay [1] turned out to be 175 nM.

`CC(C)(C)OC(=O)COc1c(C2CCC2)ccc(-c2cnc(N)cn2)c1F` [Example 49, tert-Butyl [3-(5-aminopyrazin-2-yl)-6-cyclobutyl-2-fluorophenoxy]acetate]: the IC50 in assay [1] was determined as 1150 nM.

As for `Cc1nc(COc2c(C3CCC3)ccc(-c3cnc(N)cn3)c2F)no1` [Example 70, 5-{4-Cyclobutyl-2-fluoro-3-[(5-methyl-1,2,4-oxadiazol-3-yl)methoxy]phenyl}pyrazin-2-amine], the IC50 in assay [1] was found to be 413 nM.

In the case of `CCOC(=O)c1ccc(COc2c(C3CCC3)ccc(-c3cnc(N)cn3)c2F)o1` [Example 73, Ethyl 5-{[3-(5-aminopyrazin-2-yl)-6-cyclobutyl-2-fluorophenoxy]methyl}furan-2-carboxylate], in assay [1], the IC50 is 1020 nM.

As to `Nc1cnc(-c2ccc(C3CCC3)c(OCc3cc(S(F)(F)(F)(F)F)ccc3F)c2F)cn1` [Example 77, 5-(4-Cyclobutyl-2-fluoro-3-{[2-fluoro-5-(pentafluoro-lambda~6~- sulfanyl)benzyl]oxy}phenyl)pyrazin-2-amine], in assay [1], the IC50 stood at 1380 nM.

`Nc1cnc(-c2ccc(C3CCC3)c(OCc3ccc(C(=O)O)o3)c2F)cn1` [Example 85, 5-{[3-(5-Aminopyrazin-2-yl)-6-cyclobutyl-2-fluorophenoxy]methyl}furan-2-carboxylic acid]: in assay [1], the IC50 was found to be 10000 nM.

Consider `CC(C)c1ccnc(Oc2c(C3CCC3)ccc(-c3cnc(N)cn3)c2F)n1` [Example 90, 5-(4-Cyclobutyl-2-fluoro-3-{[4-(1-methylethyl)pyrimidin-2-yl]oxy}phenyl)pyrazin-2-amine], for which the IC50 in assay [1] was 53.8 nM.

On to `N#Cc1ccnc(Oc2c(C3CCC3)ccc(-c3cnc(N)cn3)c2F)n1` [Example 92, 2-[3-(5-Aminopyrazin-2-yl)-6-cyclobutyl-2-fluorophenoxy]pyrimidine-4-carbonitrile], for which the IC50 in assay [1] came out at 6660 nM.

As to `N#Cc1ccc(Oc2c(C3CCC3)ccc(-c3cnc(N)cn3)c2F)nc1` [Example 114, 6-[3-(5-Aminopyrazin-2-yl)-6-cyclobutyl-2-fluorophenoxy]pyridine-3-carbonitrile], the half-maximal inhibitory concentration (IC50) in assay [1] amounted to 375 nM.

With `CS(=O)(=O)c1ccc(Oc2c(C3CCC3)ccc(-c3cnc(N)cn3)c2F)cc1` [Example 116, 5-{4-Cyclobutyl-2-fluoro-3-[4-(methylsulfonyl)phenoxy]phenyl}pyrazin-2-amine], the IC50 in assay [1] came out at 503 nM.

On to `CC(C)c1nccc(Oc2c(C3CCC3)ccc(-c3cnc(N)cn3)c2F)n1` [Example 135, 5-(4-Cyclobutyl-2-fluoro-3-{[2-(1-methylethyl)pyrimidin-4-yl]oxy}phenyl)pyrazin-2-amine], for which, in assay [1], the IC50 worked out at 12.4 nM.

As for `NC(=O)c1ccc(Oc2c(C3CCC3)ccc(-c3cnc(N)cn3)c2F)cc1` [Example 155, 4-[3-(5-Aminopyrazin-2-yl)-6-cyclobutyl-2-fluorophenoxy]benzamide], the IC50 in assay [1] stood at 170 nM.

For the compound `COc1c(C2CCC2)ccc(-c2cnc3c(c2)CCN3)c1F` [Example 198, 5-(4-cyclobutyl-2-fluoro-3-methoxyphenyl)-2,3-dihydro-1H-pyrrolo[2,3-b]pyridine], the IC50 in assay [1] amounted to 2370 nM.

On to `CC(C)(C)c1ccc(-c2cnc(N)cn2)c(F)c1Oc1cc(N)ncn1` [Example 202, 6-[3-(5-Aminopyrazin-2-yl)-6-tert-butyl-2-fluorophenoxy]pyrimidin-4-amine], for which the IC50 in assay [1] amounted to 80.5 nM.

As for `N#Cc1nc(-c2ccc(C3CCC3)c(O)c2F)cnc1N` [Example 222, 3-amino-6-(4-cyclobutyl-2-fluoro-3-hydroxyphenyl)pyrazine-2-carbonitrile], in assay [1], the IC50 was found to be 3480 nM.

For the compound `COc1cc(Oc2c(C3CCC3)ccc(-c3cnc4[nH]ccc4c3)c2F)ncn1` [Example 228, 5-(4-cyclobutyl-2-fluoro-3-((6-methoxypyrimidin-4-yl)oxy)phenyl)-1H-pyrrolo[2,3-b]pyridine], the IC50 in assay [1] was determined as 480 nM.

As to `CC(C)(C)OC(=O)N1CCC(COc2c(C3CCC3)ccc(-c3cnc(N)cn3)c2F)C1` (centres unmarked) [Example 247, tert-butyl 3-((3-(5-aminopyrazin-2-yl)-6-cyclobutyl-2-fluoro-phenoxy)methyl)pyrrolidine-1-carboxylate], the IC50 in assay [1] turned out to be 417 nM.

As for `Nc1cnc(-c2ccc(C3CCC3)c(Oc3cnc4cc(F)c(F)cc4n3)c2F)cn1` [Example 271, 5-{4-Cyclobutyl-3-[(6,7-difluoroquinoxalin-2-yl)oxy]-2-fluorophenyl}pyrazin-2-amine], the IC50 in assay [1] is 85.3 nM.

Take `COC(=O)c1ccc2oc(COc3c(C4CCC4)ccc(-c4cnc(N)cn4)c3F)nc2c1` [Example 274, Methyl 2-{[3-(5-aminopyrazin-2-yl)-6-cyclobutyl-2-fluorophenoxy]methyl}-1,3-benzoxazole-5-carboxylate]: the IC50 in assay [1] was determined as 160 nM.

Regarding `COC(=O)c1ccc(O)c(NC(=O)COc2c(C3CCC3)ccc(-c3cnc(N)cn3)c2F)c1` [Example 275, Methyl 3-({[3-(5-aminopyrazin-2-yl)-6-cyclobutyl-2-fluorophenoxy]acetyl}amino)-4-hydroxybenzoate], the IC50 in assay [1] was found to be 1960 nM.

Regarding `CCc1ccc(-c2cnc(N)cn2)c(F)c1Oc1ncccn1` [Example 316, 5-[4-Ethyl-2-fluoro-3-(pyrimidin-2-yloxy)phenyl]pyrazin-2-amine], the Ki at human FLAP amounted to 289 nM.

Take `Nc1cnc(-c2ccc(C3CCCCC3)c(Oc3ncccn3)c2F)cn1` [Example 320, 5-(4-Cyclohexyl-2-fluoro-3-(pyrimidin-2-yloxy)phenyl)pyrazin-2-amine]: the IC50 in assay [1] was found to be 167 nM.

Turning to `CC(C)CCc1ccc(-c2cnc(N)cn2)c(F)c1Oc1ncccn1` [Example 322, 5-(2-Fluoro-4-isopentyl-3-(pyrimidin-2 yloxy)phenyl)pyrazin-2-amine], the Ki on human FLAP turned out to be 573 nM.

Consider `Nc1cnc(-c2ccc(CC3CCCCC3)c(Oc3nccc(N)n3)c2F)cn1` [Example 326, 2-(3-(5-Aminopyrazin-2-yl)-6-(cyclohexylmethyl)-2-fluorophenoxy)pyrimidin-4-amine], for which the Ki at human FLAP is 358 nM.

For the compound `CC(C)CCc1ccc(-c2cnc(N)cn2)c(F)c1Oc1nccc(N)n1` [Example 327, 2-(3-(5-Aminopyrazin-2-yl)-2-fluoro-6-isopentylphenoxy)pyrimidin-4-amine], the Ki on human FLAP is 528 nM.

For `Nc1cnc(-c2ccc(C3CCC3)c(Oc3nc4ncccc4s3)c2F)cn1` [Example 330, 5-(4-Cyclobutyl-2-fluoro-3-(thiazolo[4,5-b]pyridin-2-yloxy)phenyl)pyrazin-2-amine], in assay [1], the IC50 is above 1000 nM.

The values above are taken from patent US9073876B2, “Flap modulators” (JANSSEN PHARMACEUTICA NV, priority 2013, dated 2015).
